Molecules are shown by their SMILES.

Two compounds from patent US20230088286A1, “USP7 INHIBITOR FOR USE IN THE TREATMENT OF CANCER” (ALMAC DISCOVERY LIMITED, priority 2020, published 2023) can be followed below.

For series [1], the system named is Ub-MDM2. As to the kind of experiment: Ub-MDM2 MSD (HCT116). The format is cell-based. The settings on record: Homo sapiens, HCT-116.
Series [2] in a line: Hep CLhep (h). The format is in vitro ADME, human.
Series [3] concerns the target CYP3A4 (Homo sapiens, UniProt P08684). Put plainly: TDI shift CYP3A4. The settings on record: value in brackets; shift N/A. It is filed as in vitro ADME.
Series [4] is described as follows: PPB Fu (h). The format is in vitro ADME. The conditions noted are these: human, plasma.
The test system of series [5] is LNCaP. Put plainly: LNCaP cell EC50. It is filed as cell-based. The settings on record: Homo sapiens.
Series [6] concerns the target 2C19 (Homo sapiens, UniProt P33261). As to the kind of experiment: Cyp inhibition 2C19. The settings on record: read-out: Cyps: 2C19. It is filed as in vitro ADME.
The subject of series [7] is Caco-2. Put plainly: Caco-2 permeability. It is filed as in vitro ADME. (Caco-2 cells form a polarised layer with tight junctions and transporters.)
The nature of series [8]: Caco-2 permeability. It is filed as in vitro ADME. The settings on record: human, Caco-2; read-out: Caco-2 Papp ratio.
In series [9] the test system is CT-26 tumour cells in BALB/c mouse. Put plainly: CT-26 syngeneic tumour model with immune checkpoint inhibitors (ADC-159 study). The format is in vivo. On the procedure:
FIG. 38: Effect of USP7 inhibition in combination with immune checkpoint inhibitors […] on the tumour microenvironment in vivo. […] Tumour volume of CT-26 xenograft implanted in immuno-competent syngeneic mice treated with vehicle control, ADC-159, anti-PD-L1, anti-CTLA-4 or in combination was measured twice weekly until day 13 post tumour implantation.
FIG. 39: USP7 inhibition leads to increase survival when combined with anti-PD-L1 and anti-CTLA-4 immune checkpoint inhibitors. […] (B) Individual growth curves show improved anti-tumour response when USP7 inhibitor ADC-159 is combined with ICIs. n=10 animals/group.
For the immune checkpoint inhibitor in vivo experiments, BALB/c mouse was injected subcutaneously in the right rear flank with 5×10^5 viable CT-26 tumour cells in 0.1 mL of PBS. ADC-159 (75 mg/kg and 100 mg/kg) was dosed daily while anti-PD-L1 or anti-CTLA4 (10 mg/kg) were dosed every 3 days. Tumour volume (mm^3) was measured with callipers three times a week using the equation: Tumour Volume (TV)=0.5((W)^2×L), where W is the shortest tumour diameter (width) and L is the longest perpendicular diameter (length), in millimetres. Body weights were measured on the same days during the dosing phase. […] Graphing and statistical analysis of tumour volume using one-way ANOVA followed by Dunnett's multiple comparisons test. […]

The nature of series [10]: KSol. It is filed as physicochemical.
Series [11] is described as follows: TSol. The format is physicochemical.
Series [12] relates to primary fibroblast, immortalised fibroblast, endothelial cells and cancer cells. As to the kind of experiment: Proliferation by live cell time-lapse imaging. It is filed as cell-based, human. The conditions noted are these: fibroblasts or endothelial cells. On the procedure: During a proliferation assay, pictures were taken every 2 hours using a time-lapse microscope. Charts were used to display cell confluency over time.
To examine the effect of USP7 inhibition on proliferation of primary fibroblast, immortalised fibroblast, endothelial cells and cancer cells, live cell time-lapse imaging was used.

The test system of series [13] is primary human dermal fibroblasts (HDF) co-cultured with stimulated PBMCs, with or without cancer cells (HT29 or H1299). The settings on record: inhibitor concentration of 300 nM, 48 hours.
Experimental: Biomarker changes relative to the vehicle control-treated systems are presented as log-transformed ratio.
BioMAP systems were employed using primary human cells. […] Human neonatal foreskin fibroblasts (HDFn) from 3 donors were pooled and cultured according to the supplier's (Lonza, Inc., Allendale, N.J.) recommendation. Peripheral blood mononuclear cells (PBMC) were prepared from buffy coats from normal human donors according to standard methods. Autoimmune HDFSAg system consisted of primary human dermal fibroblasts (HDF) co-cultured with PBMCs stimulated with T-cell receptor (SAg) to model chronic T cell activation and inflammation. Stromal Oncology Colorectal Cancer and Non-Small Cell Lung Cancer (NSCLC) panels were composed of cancer cells (HT29 or H1299), HDF and PBMCs stimulated with SAg. This model captures the interactions between tumour cells, stimulated immune cells and the host stromal network. […] Afterwards, biomarkers were measured in supernatants from co-cultures using ELISA as following: MCP-1, VCAM-1, Collagen I, IP-10, MMP-1, sIL-10, sIL-17A, sIL-17F, sIL-2, sIL-6, SRB, sTGFb, sTNFa, sVEGF, IL-8, MIG, MCSF, uPAR, Col-III, IP-10, EGFR, HGF, Pal-1, PBMC Cytotoxicity, tPA, uPA, sGranzyme, sPGE2, slFg, Sil-13, sMDC, Collagen III, MMP-9, TIMP-2, CEACAM5, Keratin 20. Biomarker levels are presented as log-transformed ratio
Series [14] relates to primary fibroblasts, immortalized fibroblasts, cancer cells. As to the kind of experiment: Scratch wound cell invasion assay through Matrigel. It is filed as cell-based, human. On the procedure: The scratch wound cell invasion assay was used to measure the ability of indicated cells to invade through Matrigel® basement membrane. Pictures were taken every 2 hours over 4 days using a time-lapse microscope and wound closure over time is presented in charts.
96-well ImageLock plates were coated with 0.1 mg/ml growth factor reduced Matrigel® and incubated for 1 h at 37° C. Cells were seeded a density of 10,000-40,000 cells/well in 100 μL/well and incubated overnight. Next day wounds were simultaneously created in all wells using the WoundMaker. After wounding, media was aspirated from each well and cells were washed twice with PBS. For invasion cells were overlayed with 50 μL of the Matrigel® top layer at 3mg/ml and incubated for 30 min at 37° C. […] Cell plates were placed into the IncuCyte live-cell analysis system and each well imaged using 10× objective every 2 hours for the total of 5-days. Images were analysed using IncuCyte scratch wound protocol and results presented as percentage of wound confluence.

In series [15] the test system is HIF-1α. As to the kind of experiment: Ubiquitination assay, TUBE pull-down of polyubiquitinated HIF-1α. It is filed as cell-based, human. The settings on record: HDF, hypoxia. On the procedure:
Given HIF-1α stability is known to be regulated at the protein level by ubiquitination, we investigated whether USP7 inhibition modulates HIF-1α polyubiquitination. […] Cells were harvested, lysed and polyubiquitinated proteins pulled down using two types of Tetra Ubiquitin Binding Entities (TUBES); with equal affinity for K48/K63 or 10 times more affinity for […]. Samples were analysed by immuno-blot using a HIF-1α antibody. […] These findings indicate that USP7 inhibition results in K48 polyubiquitination of HIF-1α and consequently, its proteasomal-mediated degradation.
Cells were lysed in a buffer containing 50 mM Tris-HCl, pH 7.5, 150 mM NaCl, 1 mM EDTA, 1% NP-40, 10% Glycerol, 50 mM NaF, 5 mM sodium pyrophosphate, 10 mM glycerol phosphate, 1 mM sodium orthovanadate, protease and phosphatase inhibitor tablet and 50 uM PR-619. Lysates were pre-cleared by centrifugation at 4° C. for 15 mins at 16,000× g and protein concentration determined using BCA method. 20 ul of samples was taken as input. Pre-cleared supernatant containing 0.5 mg of total protein was added to 20 ul equilibrated Agarose-TUBE 1 or TUBE 2 beads (Life Sensors) and incubated for 2 hours at 4° C. on a rocker platform. Beads were collected by low speed centrifugation (1000-5000× g, 4° C.) for 5 minutes and supernatant taken as FT. Beads were washed twice with 1 ml TBS-T (20 mM Tris-HCl, pH 8.0, 0.15M NaCl, 0.1% Tween-20) and collected by low speed centrifugation. Finally, beads were resuspended in 30 ul of SDS reducing sample buffer and boiled for 10 min at 95° C.

Chain of CYP3A4 (P08684 whole entry): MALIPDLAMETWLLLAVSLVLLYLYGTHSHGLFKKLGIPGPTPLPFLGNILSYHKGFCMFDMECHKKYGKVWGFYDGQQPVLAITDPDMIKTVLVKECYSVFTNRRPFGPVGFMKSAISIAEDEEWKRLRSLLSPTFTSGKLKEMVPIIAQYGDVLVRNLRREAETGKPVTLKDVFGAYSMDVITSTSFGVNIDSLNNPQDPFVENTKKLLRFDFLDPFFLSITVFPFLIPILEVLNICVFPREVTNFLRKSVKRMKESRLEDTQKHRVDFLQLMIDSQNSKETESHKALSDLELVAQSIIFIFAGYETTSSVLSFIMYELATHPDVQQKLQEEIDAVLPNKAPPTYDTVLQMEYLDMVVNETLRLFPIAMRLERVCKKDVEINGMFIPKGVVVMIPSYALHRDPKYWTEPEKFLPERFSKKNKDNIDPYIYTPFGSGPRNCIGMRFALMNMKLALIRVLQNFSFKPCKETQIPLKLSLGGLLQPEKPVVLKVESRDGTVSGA
Chain of 2C19 (P33261 whole entry): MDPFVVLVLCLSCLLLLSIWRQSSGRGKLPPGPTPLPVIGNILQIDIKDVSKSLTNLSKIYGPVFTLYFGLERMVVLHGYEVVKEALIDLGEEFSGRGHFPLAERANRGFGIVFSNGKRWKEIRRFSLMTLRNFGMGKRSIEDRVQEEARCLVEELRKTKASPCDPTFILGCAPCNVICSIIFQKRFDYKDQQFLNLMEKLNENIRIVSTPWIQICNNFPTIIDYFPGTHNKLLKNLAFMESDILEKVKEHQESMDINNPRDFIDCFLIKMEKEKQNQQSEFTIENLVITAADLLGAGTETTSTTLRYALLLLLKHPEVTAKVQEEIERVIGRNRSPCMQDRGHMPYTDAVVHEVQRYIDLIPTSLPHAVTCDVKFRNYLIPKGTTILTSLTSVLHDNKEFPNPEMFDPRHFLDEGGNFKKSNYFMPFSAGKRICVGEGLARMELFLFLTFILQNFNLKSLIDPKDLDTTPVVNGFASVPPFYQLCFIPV

By EC50 is commonly meant the concentration needed to bring the measured effect to its halfway point. Low values mean an effect from little substance, high ones a need for much substance. The fraction unbound is free concentration divided by total concentration. A higher fraction unbound goes with weak binding. On to `CC1(C(=O)N2CCC(O)(Cn3cnc4c(cc(Cl)n4-c4ccc5c(c4)CCO5)c3=O)CC2)CC1` [ADC-159, 6-Chloro-7-(2,3-dihydrobenzofuran-5-yl)-3-((4-hydroxy-1-(1-methylcyclopropane-1-carbonyl)piperidin-4-yl)methyl)-3,7-dihydro-4H-pyrrolo[2,3-d]pyrimidin-4-One], for which the 50% effective concentration (EC50) in series [1] turned out to be 0.093 µM; in [5], 0.076 µM. The “Hep CLhep (h)” value in series [2] came to 9. For the same compound, the IC50 in [3] and in series [6] was > 20 µM throughout. This compound also yielded a fraction unbound in series [4] of 0.15. The “Caco-2 A:B” value in [7] (A:B) turned out to be 8.5. Also, the “Caco-2 B:A” value in series [7] (B:A) is reported as 34.7. In addition, the efflux ratio in series [8] came to 4.1. In addition, the “tumour growth inhibition (TGI)” value in series [9] (Day 13) was 23%. Moreover, in series [9] (Kaplan-Meier, compared to vehicle controls), the survival result is given as “modest but significant increase”. The KSol in series [10] was determined as 199 µM. This compound had a TSol in series [11] of 500 µM.
As for `C[C@H](CC(=O)N1CCC(O)(Cn2cnc3c(-c4ccc(CN)cc4)n(C)nc3c2=O)CC1)c1ccccc1` [AD-04, (R)-3-(4-(Aminomethyl)phenyl)-6-((4-hydroxy-1-(3-phenylbutanoyl)piperidin-4-yl)methyl)-2-methyl-2H-pyrazolo[4,3-d]pyrimidin-7(6H)-one], the proliferation result in series [12] is on record as “no effect”. The “decrease in secreted VEGF (sVEGF)” value in [13] is on record as 3 log fold. For the same compound, the “number of invading cells” value in series [14] (cancer cells and immortalized fibroblasts) was “did not change”. Moreover, in [14] (primary fibroblast, compared to vehicle-treated cells), the “invasion through Matrigel basement membrane” value is “greatly reduced”. In addition, the “K63 specific polyubiquitination of HIF-1α” value in [15] (versus DMSO control) is “no difference”. The “K63/K48 polyubiquitinated HIF-1α” value in series [15] (AD-04 1 μM, MG132 10 μM, 1 hour) was “enhanced the accumulation”.
